Assays:
MCF-7 = experiment: MTT cell viability assay, MCF-7; assay type: cell-based, human; settings: Homo sapiens, MCF7; Table S1, MCF-7; read-out: IC50 (mean ± SD)
From the text: (§1) Blokhin National Medical Research Center of Oncology (the Ministry of Health of the Russian Federation, Moscow).

HEpG2 = experiment: MTT cell viability assay, HEpG2; assay type: cell-based, human; settings: Homo sapiens; Table S1, HEpG2; read-out: IC50 (mean ± SD)
From the text: as §1

PC-3 = experiment: MTT cell viability assay, PC-3; assay type: cell-based, human; settings: Homo sapiens; Table S1, PC-3; read-out: IC50 (mean ± SD)
From the text: as §1

HCT116 = experiment: MTT cell viability assay, HCT116; assay type: cell-based, human; settings: Homo sapiens, HCT-116; Table S1, HCT116; read-out: IC50 (mean ± SD)
From the text: as §1

RD TE32 = experiment: MTT cell viability assay, RD TE32; assay type: cell-based, human; settings: Homo sapiens; Table S1, RD TE32; read-out: IC50 (mean ± SD)
From the text: as §1

HEK293 = experiment: MTT cell viability assay, HEK293; assay type: cell-based; settings: Homo sapiens; Table S1, HEK293; read-out: IC50 (mean ± SD)
From the text: as §1

MS = experiment: MTT cell viability assay, MS; assay type: cell-based, human; settings: Homo sapiens; Table S1, MS; read-out: IC50 (mean ± SD);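 further: MS is a melanocyte cell line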
From the text: as §1

HBL-100 = experiment: MTT cell viability assay, HBL-100; assay type: cell-based, human; settings: Homo sapiens; Table S1, HBL-100; read-out: IC50 (mean ± SD)
Description: (§2) The cells were cultured in a humidified CO2 incubator (model 460-CE; Thermo Fisher Scientific, Waltham, MA, USA) at +37 °C and 5% CO2.
(§3) The percentage of the viable cells was calculated according to the following equation: cell viability (%) = 100 × (mean absorbance in the treatment group/mean absorbance in the control group). The results were expressed pictorially using Prism 6.0 (GraphPad Software, Boston, MA, USA).

HBL-100/Dox = experiment: MTT cell viability assay, HBL-100/Dox; assay type: cell-based, human; settings: Homo sapiens, HBL-100; read-out: IC50 (mean ± SD)
Description: as §2, §3

A549 = experiment: MTT cell viability assay, A549; assay type: cell-based, human; settings: Homo sapiens; Table S1, A549; read-out: IC50 (mean ± SD)
From the text: as §1

SMILES	IC50 (MCF-7) [µM]	IC50 (HEpG2) [µM]	IC50 (PC-3) [µM]	IC50 (HCT116) [µM]	melting point [°C]	IC50 (RD TE32) [µM]	IC50 (HEK293) [µM]	IC50 (MS) [µM]	IC50 (HBL-100) [µM]	IC50 (HBL-100/Dox) [µM]	IC50 (A549) [µM]
C=C(C=O)C1CC[C@]2(C)C(CCC3C4C(C(C)C)CC[C@]4(COC(=O)c4ccccc4)CC[C@]32C)[C@@]1(C)CCC#N (some centres unmarked) [compound 4, 28-Benzoyloxy-2-cyano-3,4-seco-3-norlup-4(23)-en-24-al]	> 200	> 100	> 100	> 200	176.5	> 100	> 100	> 100	> 100	> 100	> 100
C=C(C=O)C1CC[C@]2(C)C(CCC3C4C(C(C)C)CC[C@]4(C(=O)OC)CC[C@]32C)[C@@]1(C)CCC#N (some centres unmarked) [compound 5, 2-Cyano-3,4-seco-3-norlup-4(23)-en-24-al-28-oic acid methyl ester]	> 200	> 100	> 100	> 200	97.3	> 100	> 200	> 100	> 200	> 100	> 100
C=C(CBr)C1CC[C@]2(C)C(CCC3C4C(C(C)C)CC[C@]4(COC(=O)c4ccccc4)CC[C@]32C)[C@@]1(C)CCC#N (some centres unmarked) [compound 6, 28-Benzoyloxy-24-bromo-2-cyano-3,4-seco-3-norlup-4(23)-ene]	> 200	> 100	> 100	> 200	87.9	> 200	> 200	> 100	> 100	> 200	> 100
C=C(CBr)C1CC[C@]2(C)C(CCC3C4C(C(C)C)CC[C@]4(C(=O)OC)CC[C@]32C)[C@@]1(C)CCC#N (some centres unmarked) [compound 7, 24-Bromo-2-cyano-3,4-seco-3-norlup-4(23)-en-28-oic acid methyl ester]	> 100	> 100	> 100	> 200	72.7	> 200	> 100	> 100	> 200	> 200	> 100
C=C1C=C(C#N)C[C@@]2(C)C1CC[C@]1(C)C2CCC2C3C(C(C)C)CC[C@]3(CO)CC[C@]21C (some centres unmarked) [compound 8, 2-Cyano-28-hydroxy-3,4-seco-3-nor-2,24-cyclolup-2(24),4(23)-diene]	> 100	> 100	> 100	> 200	196.1	> 200	> 100	> 100	> 100	> 200	> 100
C=C1C2CC[C@]3(C)C(CCC4C5C(C(C)C)CC[C@]5(CO)CC[C@]43C)[C@@]2(C)C[C@@H](C#N)[C@@H]1O (stereo partly drawn) [compound 9, 2-Cyano-24β,28-dihydroxy-3,4-seco-3-nor-2,24-cyclolup-4(23)-ene]	> 200	> 100	> 100	> 100	170.1	> 100	> 100	> 100	> 200	> 100	> 100
C=C1C=C(C#N)C[C@@]2(C)C1CC[C@]1(C)C2CCC2C3C(C(C)C)CC[C@]3(C(=O)OC)CC[C@]21C (some centres unmarked) [compound 10, 2-Cyano-3,4-seco-3-nor-2,24-cyclolup-2(24),4(23)-dien-28-oic acid methyl ester]	> 100	> 100	> 100	> 200	76.6	> 100	> 200	> 100	> 100	> 200	> 100
C=C1C2CC[C@]3(C)C(CCC4C5C(C(C)C)CC[C@]5(C(=O)OC)CC[C@]43C)[C@@]2(C)C[C@@H](C#N)[C@@H]1O (stereo partly drawn) [compound 11, 2-Cyano-24β-hydroxy-3,4-seco-3-nor-2,24-cyclolup-4(23)-en-28-oic acid methyl ester]	> 100	> 100	> 100	> 200	133.9	> 200	> 200	> 100	73.3 ± 1.51	> 200	> 100
C=C1C[C@H](C#N)C[C@@]2(C)C1CC[C@]1(C)C2CCC2C3C(C(C)C)CC[C@]3(C(=O)OC)CC[C@]21C (some centres unmarked) [compound 13, 2-Cyano-3,4-seco-3-nor-2,24-cyclolup-4(23)-en-28-oic acid methyl ester]	> 100	> 100	> 100	> 100	177.7	> 100	> 200	> 100	> 100	> 200	> 100
COC(=O)[C@]12CCC(C(C)C)C1C1CCC3[C@@]4(C)CC(C#N)=CC(=O)C4CC[C@@]3(C)[C@]1(C)CC2 (some centres unmarked) [compound 15, 2-Cyano-4-oxo-3,4-seco-3,23-dinor-2,24-cyclolup-2(24)-en-28-oic acid methyl ester]	> 100	> 100	> 100	> 100	69.7	> 100	> 100	> 100	> 100	> 100	> 100
CC(C)C1CC[C@]2(CO)CC[C@]3(C)C(CCC4[C@@]5(C)C[C@@H](C#N)CC(=O)C5CC[C@]43C)C12 (some centres unmarked) [compound 16, 2-Cyano-28-hydroxy-4-oxo-3,4-seco-3,23-dinor-2,24-cyclolupane]	> 100	> 100	> 100	> 200	166.6	> 100	> 100	> 100	> 100	> 200	> 100
COC(=O)[C@]12CCC(C(C)C)C1C1CCC3[C@@]4(C)C[C@@H](C#N)CC(=O)C4CC[C@@]3(C)[C@]1(C)CC2 (some centres unmarked) [compound 17, 2-Cyano-4-oxo-3,4-seco-3,23-dinor-2,24-cyclolup-28-oic acid methyl ester]	> 100	> 100	> 100	> 100	220.8	> 100	> 100	> 100	> 200	> 200	> 100
CC(C)C1CC[C@]2(CO)CC[C@]3(C)C(CCC4[C@@]5(C)C[C@@H](C#N)C[C@H](O)C5CC[C@]43C)C12 (stereo partly drawn) [compound 18, 2-Cyano-4β,28-dihydroxy-3,4-seco-3,23-dinor-2,24-cyclolupane]	> 100	> 100	> 100	> 200	205.7	> 200	> 100	> 100	> 100	> 200	> 100
